Assay results published in ChEMBL document CHEMBL3132753, “Synthesis and biological evaluation of 2-acetamidothiophene-3-carboxamide derivatives against Leishmania donovani” (Medchemcomm, 2014).

What was measured:
Leishmania donovani [1] = test: Antileishmanial activity against amastigote stage of Leishmania donovani MHOM/ET/67/HU3 infected in human THP1 cells assessed as parasite clearance after 3 days by Draq5 staining-based confocal microscopic analysis; assay type: functional, organism-based; details: MHOM/ET/67/HU3, THP-1, 72 h
[2] = Cytotoxicity against human THP1 cells; assay type: cell-based; details: THP-1 cells
Leishmania donovani [3] = test: Antileishmanial activity against promastigote stage of Leishmania donovani MHOM/ET/67/HU3 assessed as parasite viability after 48 hrs by resazurin dye-based assay; assay type: functional, organism-based; details: MHOM/ET/67/HU3, 48 h
[4] = Selectivity index, ratio of CC50 for human THP1 cells to EC50 for amastigote stage of Leishmania donovani MHOM/ET/67/HU3; assay type: toxicity, cell-based; details: THP-1 cells, read-out: Ratio CC50/EC50

Row | EC50 (Leishmania donovani [1]) | SMILES | CC50 [2] | EC50 (Leishmania donovani [3]) | selectivity ratio [4]
1 | > 50 µM | CC(C)(C)NC(=O)c1c(NC(=O)C(F)(F)F)sc2c1CCCCC2 | > 50 µM | – | –
2 | > 50 µM | COc1ccc(NC(=O)c2c(NC(=O)c3ccccc3)sc3c2CCCCC3)cc1 | > 50 µM | – | –
3 | > 50 µM | COc1ccccc1NC(=O)c1c(NC(=O)C(F)(F)F)sc2c1CCCCC2 | > 50 µM | 42 µM | –
4 | > 50 µM | COC(=O)Nc1sc2c(c1C(=O)Nc1ccc(OC)cc1)CCCCC2 | > 50 µM | – | –
5 | > 50 µM | COc1ccc(CNC(=O)c2c(NC(=O)C(F)(F)F)sc3c2CCCCC3)cc1 | > 50 µM | > 50 µM | –
6 | > 50 µM | CC(C)(C)OC(=O)c1c(N)sc2c1CCCCC2 | > 50 µM | – | –
7 | 8.53 µM | N#Cc1ccc(NC(=O)c2c(NC(=O)C(F)(F)F)sc3c2CCCCC3)cc1 | 9.11 µM | > 50 µM | 1.06
8 | 9.85 µM | O=C(Nc1ccc(OC(F)(F)F)cc1)c1c(NC(=O)C(F)(F)F)sc2c1CCCCC2 | 11.9 µM | > 50 µM | 1.2
9 | > 50 µM | CC(=O)Nc1sc2c(c1C(=O)OC(C)(C)C)CCCCC2 | > 50 µM | – | –
10 | 6.41 µM | COc1ccc(NC(=O)c2c(NC(=O)C(F)(F)F)sc3c2CCCCC3)cc1 | > 50 µM | > 50 µM | > 7.8
11 | 10.1 µM | COc1cccc(NC(=O)c2c(NC(=O)C(F)(F)F)sc3c2CCCCC3)c1 | 37.6 µM | 21.5 µM | 3.71
12 | 0.25 µM | C[C@@H]1[C@H](O)[C@@H](C)/C=C/C=C/C=C/C=C/C=C/C=C/C=C/[C@H](O[C@@H]2O[C@H](C)[C@@H](O)[C@H](N)[C@@H]2O)C[C@@H]2O[C@](O)(C[C@@H](O)C[C@@H](O)[C@H](O)CC[C@@H](O)C[C@@H](O)CC(=O)O[C@H]1C)C[C@H](O)[C@H]2C(=O)O [AMPHOTERICIN B] | 7.57 µM | 0.18 µM | 30.2
13 | > 50 µM | COc1ccc(NC(=O)c2c(NC(C)=O)sc3c2CCCCC3)cc1 | > 50 µM | > 50 µM | –
14 | > 50 µM | Cc1ccc(NC(=O)c2c(NC(=O)C(F)(F)F)sc3c2CCCCC3)cc1 | > 50 µM | – | –
15 | 10.1 µM | COc1ccc(NC(=O)c2c(NC(=O)C(F)(F)F)sc(C)c2C)cc1 | > 50 µM | > 50 µM | > 4.95
16 | > 50 µM | COc1ccc(NC(=O)c2c(NC(=O)C(F)(F)F)sc3c2CCC3)cc1 | > 50 µM | – | –
17 | > 50 µM | COc1ccc(NC(=O)c2ccsc2NC(=O)C(F)(F)F)cc1 | > 50 µM | > 50 µM | –
18 | 17.6 µM | O=C(Nc1ccc(C(F)(F)F)cc1)c1c(NC(=O)C(F)(F)F)sc2c1CCCCC2 | 17.2 µM | > 50 µM | 0.9
19 | > 50 µM | O=C(Nc1ccc(Cl)cc1)c1c(NC(=O)C(F)(F)F)sc2c1CCCCC2 | > 50 µM | – | –
20 | 14.6 µM | COc1ccc(NC(=O)c2c(NC(=O)C(F)(F)F)sc3c2CCCC3)cc1 | > 50 µM | > 50 µM | > 3.42
21 | 7.1 µM | CCCCCCCCCCCCCCCCOP(=O)([O-])OCC[N+](C)(C)C [MILTEFOSINE] | 22.7 µM | 7.4 µM | 3.19
